Experimental findings from patent publication US20200316090A1, “TARGETED THERAPEUTICS” (MADRIGAL PHARMACEUTICALS, INC., priority 2012, published 2020) are described below.

Read-outs that look alike come from different tables or passages of the source.

The nature of data set [1]: Mouse plasma stability (Examples 16-18). It counts as in vitro ADME. The conditions noted are these: 37° C.
Method: This solution was used to precipitate all plasma samples in the study. 200 μL was pipetted into a 96 deepwell plate over dry ice. 10 μL of 1 mM stock in DMSO was added to a 1.5 mL microfuge tube, then 990 μL of plasma. Samples were mixed by vortex, then 50 μL of each sample was added in triplicate to a 96-well plate containing internal standard solution. This was designated the 0 hour time point sample. 250 μL of the remaining plasma sample was added to each of four 96 deepwell plates—one per time point. Samples were incubated at 37° C. with gentle shaking for 0.25, 0.5, and 1 hour. After each time point, one plate of each sample was removed from the shaker and placed on wet ice for approximately 2 minutes. 50 μL plasma aliquots (in triplicate) were added to the deepwell plate containing internal standard solution. After the last time point was extracted, the 96 deepwell plate was vortexed, then centrifuged at 2-8° C. 150 μL of supernatant was collected and 25 μL of water was added. Samples were mixed and analyzed by LC-MS/MS.
The stability of seven SDC-TRAP types in mouse plasma was measured as follows. 990 μL mouse plasma aliquots from a common stock were spiked with 10 μL of 1 mM stock of one of seven SDC-TRAP samples identified in the table below. Each sample was mixed and divided into 250 μL aliquots, each representing time points 0, 15 minutes, 30 minutes or 1 hour. At the prescribed time point, 3×50 μL samples were each mixed with 200 μL of methanol containing internal standard and held on dry ice until all time point samples were extracted. The samples collectively were vortex mixed for 1.5 minutes at 1500 rpm, then centrifuged at 4400 rpm for 10 minutes at 8° C.
The nature of data set [2]: Artificial membrane permeability assay (PAMPA).
Method: In order to test the ability SDC-TRAP molecules of the invention to enter cells, an artificial membrane permeability assay (“PAMPA”) was used. […] LC/MS was used in conjunction with PAMPA assays to determine the ability of the SDC-TRAP molecules of the invention to permeate cells.
Pre-coated PAMPA plates were warmed to room temperature for at least 30 minutes prior to adding assay components.
Stock solutions were prepared with the SDC-TRAP molecules to be tested. In order to make a working solution, either 50 μL of 100 μM Stock in DMSO+950 μL of PBS or 50 μL of 200 stock was added to 96 deep well plate, resulting in a 5 μM final concentration or a 10 μM final concentration, respectively. […] 200 μL of PBS was added into the corresponding wells of an acceptor PAMPA plates.
The acceptor plate was lowered onto the donor plate and allowed to incubate for five hours. After five hours, a 50 μL aliquot was removed from each well of each plate and added into a new 96 deep-well plate.
100 μL of methanol containing an internal standard was added to each aliquot and analyzed by LC/MS. The internal standard was 150 ng/ml SDC-TRAP-0002.
In order to calculate the permeability for each SDC-TRAP molecule and the control molecules, the following formula was used:
Permeability (in Unit of Cm/s):
[formula] • C0=initial compound concentration in donor well (mM) • CD (t)=compound concentration in donor well at time t. (mM) • CA (t)=compound concentration in acceptor well at time t. (mM) • VD=donor well volume=0.3 mL • VA=acceptor well volume=0.2 mL • A=filter area=0.3 cm^2 • t=incubation time=18000 s (5 h)
For the data presented in the table below, peak area was used in place of concentration in the formula above.
Data set [3] in a line: Tissue distribution of SDC-TRAP and degradation products in tumor-bearing mice (plasma, tumor, heart). It counts as in vivo, Female SCID Mouse (H1975). The conditions noted are these: for Kp: read-out: Tumor/Plasma Ratio.
Method: A 150 ng/mL solution of SDC-TRAP-0002 in methanol was prepared using an internal spiking solution (500 μg/mL SDC-TRAP-0002 in DMSO). Using the 10 mM stock solutions of the SDC-TRAP molecule and its Hsp90i binding moiety and effector moiety in DMSO, spiking solutions were prepared at 0.025, 0.05, 0.1, 0.5, 1, 5, 10, 50, 100, 250, and 500 μM in DMSO. 5 μL of each spiking solution was added to a 96-deep well plate.
Quality control standards were prepared from 5 μL of 0.1, 1, and 10 μM calibration standard spiking solution added in triplicate into 96-deep well plate and adding 50 μL of matrix (plasma or homogenized tumor).
To prepare test samples, test plasma was diluted as needed using blank plasma. Tumor samples were pulverized in liquid nitrogen, weighed, and homogenized in PBS at 5× volume to sample weight. 50 μL of unknown plasma or homogenized tumor sample was mixed with 5 μL of DMSO. The samples were extracted by precipitating calibration standards, QC standards, and unknown samples with 200 μL of internal standard solution. The samples were mixed by vortex at room temperature for approximately 1.5 minutes, then centrifuge at 2-8° C. 150 μL of supernatant was collected and 25 μL of water added. Samples were mixed and analyzed by LC-MS/MS.
Samples of plasma, heart and tumor were excised from a euthanized mouse, homogenized in PBS at 5 times tissue weight and diluted in 5 μL DMSO/50 μL sample. Prior to analysis, 55 μL samples and calibration standards were precipitated in 200 μL methanol in 96-well plates. Samples were mixed on a vortex mixer for 1.5 minutes at 1500 rpm at room temperature, then centrifuged at 4400 rpm for 10 minutes at 8° C. 150 μL of each supernatant was transferred to a well of a new 96-well plate, and 25 μL of water was added and mixed with the sample. […] For the analysis of samples from female SCID mice, a gradient of solvent A (water/0.1% formic acid) and B (acetonitrile/0.1% formic acid) was used as in Table A below.
The mark [4] stands for this setting: Permeability (10^−6 cm/s), 5 h incubation, peak area used in place of concentration, first table.
Where [5] appears, read: Permeability (cm/s), 5 h incubation, peak area used in place of concentration, first table.

Consider `CCc1c2c(nc3ccc(O)cc13)-c1cc3c(c(=O)n1C2)COC(=O)C3(CC)OC(=O)N(C)CCOCCn1ccc2cc(-n3c(O)nnc3-c3cc(C(C)C)c(O)cc3O)ccc21` (stereo not shown) [SDC-TRAP-0037, 4,11-diethyl-9-hydroxy-3,14-dioxo-3,4,12,14-tetrahydro-1H-pyrano[3′,4′:6,7]indolizino[1,2-b]quinolin-4-yl (2-(2-(5-(3-(2,4-dihydroxy-5-isopropylphenyl)-5-hydroxy-4H-1,2,4-triazol-4-yl)-1H-indol-1-yl)ethoxy)ethyl) (methyl)carbamate], for which the “Mouse (5 μM) % Remaining 1 h (37° C.) *” value in data set [1] (5 μM, 1 h, sum of both peaks of parent chromatogram) is 67%. The “Mouse (5 μM) % Remaining 19 h (37° C.)” value in data set [1] (5 μM, 19 h) came to 6%. Besides, the “Mouse (10 μM) % Remaining 1 h (37° C.) *” value in data set [1] (10 μM, 1 h, sum of both peaks of parent chromatogram) is reported as 95%.
As for `CCNC(=O)c1nnc(-c2cc(C(C)C)c(O)cc2O)n1-c1ccc2c(ccn2CCC2CCN(C(=O)Oc3ccc4nc5c(c(CC)c4c3)Cn3c-5cc4c(c3=O)COC(=O)[C@]4(O)CC)CC2)c1` [SDC-TRAP-0205, (S)-4,11-diethyl-4-hydroxy-3,14-dioxo-3,4,12,14-tetrahydro-1H-pyrano[3′,4′:6,7]indolizino[1,2-b]quinolin-9-yl 4-(2-(5-(3-(2,4-dihydroxy-5-isopropylphenyl)-5-(ethylcarbamoyl)-4H-1,2,4-triazol-4-yl)-1H-indol-1-yl)ethyl)piperidine-1-carboxylate], in data set [2] (same protocol, second table), the “Mass Retention (%)” value is 10.9%.
What is called Papp is a coefficient for how fast a substance crosses the barrier. Read a low Papp as slow passage. Consider `CC(C)c1cc(-c2nnc(C(=O)NCCCCCS(N)(=O)=O)n2-c2ccc(CN3CCOCC3)cc2)c(O)cc1O` [SDC-TRAP-0232, 5-(2,4-dihydroxy-5-isopropylphenyl)-4-(4-(morpholinomethyl)phenyl)-N-(5-sulfamoylpentyl)-4H-1,2,4-triazole-3-carboxamide], for which, in data set [2] (5 h incubation, first table), the “Mass Retention (%)” value is given as 21.0%. Moreover, the Papp at 5 h in data set [2] (setting [4]) and in data set [2] (setting [5]) was 0.00689 ×10⁻⁶ cm/s in each case.
On to `CC(=O)O[C@@]12CO[C@@H]1C[C@H](O)[C@@]1(C)C(=O)[C@H](O)C3=C(C)[C@@H](OC(=O)[C@H](O)[C@@H](NC(=O)OC(C)(C)C)c4ccccc4)C[C@@](O)([C@@H](OC(=O)c4ccccc4)[C@H]21)C3(C)C` [Docetaxel, docetaxel, reference compound], for which the “Mass Retention (%)” value in data set [2] (5 h incubation, first table) is 17.6%. Further, the Papp at 5 h in data set [2] (setting [4]) and in data set [2] (setting [5]) was 0.05 ×10⁻⁶ cm/s throughout.
On to `CCNC(=O)c1nnc(-c2cc(C(C)C)c(O)cc2O)n1-c1ccc(CN2CCC(C(=O)N[C@@H](CC(C)C)C(=O)Nc3cccc4c3CN(C3CCC(=O)NC3=O)C4=O)CC2)cc1` (stereo partly drawn) [SDC-TRAP-0193, 1-(4-(3-(2,4-dihydroxy-5-isopropylphenyl)-5-(ethylcarbamoyl)-4H-1,2,4-triazol-4-yl)benzyl)-N-((2S)-1-((2-(2,6-dioxopiperidin-3-yl)-1-oxoisoindolin-4-yl)amino)-4-methyl-1-oxopentan-2-yl)piperidine-4-carboxamide], for which, in data set [2] (5 h incubation, first table), the “Mass Retention (%)” value came out at 10.2%. For the same compound, the apparent permeability coefficient (Papp) at 5 h in data set [2] (setting [4]) and in data set [2] (setting [5]) was 0.00859 ×10⁻⁶ cm/s throughout.
As to `CC(C)c1cc(-c2nnc(O)n2-c2ccc(CN3CCN(C(=O)CCn4cc(F)c(=O)[nH]c4=O)CC3)cc2)c(O)cc1O` [SDC-TRAP-0049, 1-(3-(4-(4-(3-(2,4-dihydroxy-5-isopropylphenyl)-5-hydroxy-4H-1,2,4-triazol-4-yl)benzyl)piperazin-1-yl)-3-oxopropyl)-5-fluoropyrimidine-2,4 (1H,3H)-dione], in data set [2] (5 h incubation, first table), the “Mass Retention (%)” value was 14.1%. For the same compound, the Papp at 5 h in data set [2] (setting [4]) and in data set [2] (setting [5]) was 0.0124 ×10⁻⁶ cm/s in each case.
Consider `CCNC(=O)c1nnc(-c2cc(C(C)C)c(O)cc2O)n1-c1ccc(Oc2ccc(C(=O)N3CCC(C(=O)OC4(CC)C(=O)OCc5c4cc4n(c5=O)Cc5c-4nc4ccc(O)cc4c5CC)CC3)cc2)cc1` (stereo not shown) [SDC-TRAP-0154, 4,11-Diethyl-9-hydroxy-3,14-dioxo-3,4,12,14-tetrahydro-1H-pyrano[3′,4′:6,7]indolizino[1,2-b]quinolin-4-yl 1-(4-(4-(3-(2,4-dihydroxy-5-isopropylphenyl)-5-(ethylcarbamoyl)-4H-1,2,4-triazol-4-yl)phenoxy)benzoyl)piperidine-4-carboxylate], for which the “Mass Retention (%)” value in data set [2] (same protocol, second table) amounted to 10.3%. Moreover, the Kp amounted to 0.44 in data set [3] (female, SCID, mouse, in vivo, tissue distribution of SDC-TRAP-0154, 6 h); 2.68 in data set [3] (female, SCID, mouse, in vivo, tissue distribution of SDC-TRAP-0154, 24 h); 26.8 in data set [3] (female, SCID, mouse, in vivo, tissue distribution of SDC-TRAP-0154, 48 h). The “Plasma Conc.” value in data set [3] (tissue distribution of SDC-TRAP-0154, 1 h) was determined as 215 µM. In addition, the “Tumor Conc.” value in data set [3] (tissue distribution of SDC-TRAP-0154, 24 h) is reported as 0.115 nmol/g of tissue; in data set [3] (tissue distribution of SDC-TRAP-0154, 48 h), 0.0921 nmol/g of tissue.
`Nc1cccc2c1CN(C1CCC(=O)NC1=O)C2=O` (stereo not shown) [Lenalidomide, lenalidomide, reference compound]: the “Mass Retention (%)” value in data set [2] (5 h incubation, first table) is 26.0%. Besides, the Papp at 5 h in data set [2] (setting [4]) came to 0.062 ×10⁻⁶ cm/s. Also, the Papp at 5 h in data set [2] (setting [5]) is 0.062 ×10⁻⁶ cm/s. Moreover, in data set [3] (female, SCID, mouse, in vivo), the Kp at 1 h was 11.9 and the Kp at […] worked out at 0.449.
Regarding `CCNC(=O)c1nnc(-c2cc(C(C)C)c(O)cc2O)n1-c1ccc(OC2CCN(c3cnc(C(=O)N[C@H]4C[C@H](O[C@H]5C[C@](O)(C(=O)CO)Cc6c(O)c7c(c(O)c65)C(=O)c5c(OC)cccc5C7=O)O[C@@H](C)[C@H]4O)cn3)CC2)cc1` [SDC-TRAP-0200, 5-(4-(4-(3-(2,4-dihydroxy-5-isopropylphenyl)-5-(ethylcarbamoyl)-4H-1,2,4-triazol-4-yl)phenoxy)piperidin-1-yl)-N-((2S,3S,4S,6R)-3-hydroxy-2-methyl-6-(((1S,3S)-3,5,12-trihydroxy-3-(2-hydroxyacetyl)-10-methoxy-6,11-dioxo-1,2,3,4,6,11-hexahydrotetracen-1-yl)oxy)tetrahydro-2H-pyran-4-yl)pyrazine-2-carboxamide], in data set [2] (same protocol, second table), the “Mass Retention (%)” value stood at 10.6%.
`COc1cccc2c1C(=O)c1c(O)c3c(c(O)c1C2=O)C[C@@](O)(C(=O)CO)C[C@@H]3O[C@H]1C[C@H](N)[C@H](O)[C@H](C)O1` [Doxorubicin, doxorubicin, reference compound]: in data set [2] (5 h incubation, first table), the “Mass Retention (%)” value came out at 21.0%. In addition, the apparent permeability (Papp) at 5 h in data set [2] (setting [4]) and in data set [2] (setting [5]) was 0.0033 ×10⁻⁶ cm/s in each case.
For `CCNC(=O)c1nnc(-c2cc(C(C)C)c(O)cc2O)n1-c1ccc2c(c1)CN(Cc1cc(OC)c(OC(=O)Nc3cccc4c3CN(C3CCC(=O)NC3=O)C4=O)c(OC)c1)C2` (stereo not shown) [SDC-TRAP-0196, 4-((5-(3-(2,4-dihydroxy-5-isopropylphenyl)-5-(ethylcarbamoyl)-4H-1,2,4-triazol-4-yl)isoindolin-2-yl)methyl)-2,6-dimethoxyphenyl (2-(2,6-dioxopiperidin-3-yl)-1-oxoisoindolin-4-yl)carbamate], the “Mass Retention (%)” value in data set [2] (5 h incubation, first table) was found to be 22.3%.
On to `CCNC(=O)c1nnc(-c2cc(C(C)C)c(O)cc2O)n1-c1ccc2c(ccn2CCC2CCN(C(=O)O[C@]3(CC)C(=O)OCc4c3cc3n(c4=O)Cc4c-3nc3ccc(O)cc3c4CC)CC2)c1` [SDC-TRAP-0208, (S)-4,11-diethyl-9-hydroxy-3,14-dioxo-3,4,12,14-tetrahydro-1H-pyrano[3′,4′:6,7]indolizino[1,2-b]quinolin-4-yl 4-(2-(5-(3-(2,4-dihydroxy-5-isopropylphenyl)-5-(ethylcarbamoyl)-4H-1,2,4-triazol-4-yl)-1H-indol-1-yl)ethyl)piperidine-1-carboxylate], for which the “Mass Retention (%)” value in data set [2] (same protocol, second table) amounted to 25.0%.
The same measure, in the same setting: the result for `CCc1c2c(nc3ccc(O)cc13)-c1cc3c(c(=O)n1C2)COC(=O)[C@@]3(CC)OC(=O)N1CCC(CCn2ccc3cc(-n4c(O)nnc4-c4cc(C(C)C)c(O)cc4O)ccc32)CC1` [SDC-TRAP-0064, (S)-4,11-diethyl-9-hydroxy-3,14-dioxo-3,4,12,14-tetrahydro-1H-pyrano[3′,4′:6,7]indolizino[1,2-b]quinolin-4-yl 4-(2-(5-(3-(2,4-dihydroxy-5-isopropylphenyl)-5-hydroxy-4H-1,2,4-triazol-4-yl)-1H-indol-1-yl)ethyl)piperidine-1-carboxylate] reads 48.4%.
On to `CCc1c2c(nc3ccc(OC(=O)N4CCC[C@H]4C(=O)N4CCC(CCn5ccc6cc(-n7c(O)nnc7-c7cc(C(C)C)c(O)cc7O)ccc65)CC4)cc13)-c1cc3c(c(=O)n1C2)COC(=O)[C@]3(O)CC` [SDC-TRAP-0210], for which the Papp at 5 h in data set [2] worked out at 0.00899 ×10⁻⁶ cm/s. In addition, the “Mass Retention (%)” value in data set [2] (5 h incubation, first table) is reported as 34.8%; in data set [2] (same protocol, second table), 72.2%. Also, the “Permeability (10^−6 cm/s)” value in data set [2] (same protocol, second table) was 0.00899 10^−6 cm/s.
As to `CCNC(=O)c1nnc(-c2cc(C(C)C)c(O)cc2O)n1-c1ccc(CN2CCC(C(=O)N3CCN(c4cc(C)c(OC(=O)Nc5cccc6c5CN(C5CCC(=O)NC5=O)C6=O)c(C)c4)CC3)CC2)cc1` (stereo not shown) [SDC-TRAP-0195, 4-(4-(1-(4-(3-(2,4-dihydroxy-5-isopropylphenyl)-5-(ethylcarbamoyl)-4H-1,2,4-triazol-4-yl)benzyl)piperidine-4-carbonyl)piperazin-1-yl)-2,6-dimethylphenyl (2-(2,6-dioxopiperidin-3-yl)-1-oxoisoindolin-4-yl)carbamate], in data set [2] (5 h incubation, first table), the “Mass Retention (%)” value is recorded as 27.1%.
With `CC(C)c1cc(-c2nnc(O)n2-c2ccc3c(ccn3CCOCCNC(=O)CCn3cc(F)c(=O)[nH]c3=O)c2)c(O)cc1O` [SDC-TRAP-0048, N-(2-(2-(5-(3-(2,4-dihydroxy-5-isopropylphenyl)-5-hydroxy-4H-1,2,4-triazol-4-yl)-1H-indol-1-yl)ethoxy)ethyl)-3-(5-fluoro-2,4-dioxo-3,4-dihydropyrimidin-1 (2H)-yl)propanamide], the “Mass Retention (%)” value in data set [2] (5 h incubation, first table) was 10.8%. The apparent permeability (Papp) at 5 h in data set [2] (setting [4]) and in data set [2] (setting [5]) was 0.0283 ×10⁻⁶ cm/s throughout.
With `Cn1c(=O)c2c(ncn2C)n(C)c1=O` [Caffeine], the “Mass Retention (%)” value is 20.8% in data set [2] (5 h incubation, first table) and −0.11% in data set [2] (same protocol, second table). In addition, the Papp at 5 h was 11.7 ×10⁻⁶ cm/s in data set [2] (setting [4]); 14.3 ×10⁻⁶ cm/s in data set [2] (Permeability (10^−6 cm/s), same protocol, second table); 11.7 ×10⁻⁶ cm/s in data set [2] (setting [5]); 14.3 ×10⁻⁶ cm/s in data set [2] (Permeability (cm/s), same protocol, second table).
